Assay results from patent US20210290648A1, “Potentiation of B-Lactam Antibiotics and B-Lactam/B-Lactamase Inhibitor Combinations Against Multidrug and Extensively Drug-Resistant Pseudomonas Aeruginosa Using Non-Ribosomal Tobramycin-Cyclam Conjugates” (University of Manitoba, priority 2018, published 2021).

What was measured:
[1] = system: β-lactamase-harboring MDR P. aeruginosa clinical isolates; experiment: Triple combination susceptibility (β-lactam + avibactam + compound 2); assay type: cell-based, Pseudomonas aeruginosa
Description: The diazabicyclooctane β-lactamase inhibitor, avibactam, is able to inhibit a wide range of serine β-lactamases (class A, C, and D) but not metallo-β-lactamases (class B) (50, 51).^50,51 However, the high concentration of avibactam required to neutralize the effects of β-lactamase enzymes in these phenotypes is indicative of concomitant permeability barriers in the isolates, such as reduced porin uptake. […] The results of this study are shown in (FIG. 6). All isolates were resistant to all three β-lactam antibiotics used for the study. […] As expected, the study with meropenem was slightly different from others.
(§1) Antimicrobial Susceptibility Assay. The in vitro antimicrobial activity of all compounds/antibiotics against a panel of bacteria was evaluated by microbroth dilution method in accordance with the Clinical and Laboratory Standards Institute (CLSI) guidelines. Overnight grown bacterial cultures were diluted in saline to achieve a 0.5 McFarland turbidity, followed by 1:50 dilution in Mueller-Hinton broth (MHB) for inoculation to a final concentration of approximately 5×10^5CFU/mL. The antimicrobial agents were 2-fold serially diluted in MHB in a 96-well plate and incubated at 37° C. with equal volumes of inoculum for 18 h. The lowest concentration that prevented the visible growth of bacteria was defined as the MIC for each antimicrobial agent. The broth with or without bacterial cells was used as positive or negative control, respectively.
Checkerboard Assay. Combination studies with different antibiotics were performed in 96-well plates as previously described (22). Briefly, the antibiotic of interest was serially diluted in MHB along the abscissa while the adjuvant (newly synthesized conjugates) was serially diluted in MHB along the ordinate. This creates a 10×7 matrix wherein each well consists of a combination of different antibiotic and adjuvant concentrations. Overnight grown bacterial cultures were diluted in saline to achieve a 0.5 McFarland turbidity, followed by 1:50 dilution in Mueller-Hinton broth (MHB) for inoculation to a final concentration of approximately 5×10^5CFU/mL. Equal volume of this bacterial culture was then added to each well and incubated at 37° C. for 18 h. After incubation, the plates were read on EMax® Plus microplate reader (Molecular Devices, Sunnyvale, Calif., USA) at 590 nm. MIC was recorded as wells with the lowest concentration of drugs with no bacterial growth. The fractional inhibitory concentration (FIC) for each antibiotic was calculated by dividing the MIC of the antibiotic in the presence of adjuvant by the MIC of the antibiotic alone. Similarly, the FIC of adjuvant was calculated by dividing the MIC of the adjuvant in the presence of antibiotic by the MIC of the adjuvant alone. FIC index is the sum of both FICs. FIC indices of <0.5 were deemed synergistic; 0.5-4, no interaction; and >4, antagonistic.

E. coli ATCC 25922 = experiment: MIC, microbroth dilution; assay type: cell-based; conditions: standalone
Procedure: as §1

[2] = humans; cited from earlier work

## 5-O-(Octylcyclam)-tobramycin.9TFA [Compound 2]
[1]; all β-lactamase-harboring isolates tested
  effect on activity of ceftolozane-tazobactam combinations: did not improve the activity
[1]; aztreonam + avibactam + compound 2, 8 μM each
  isolates below aztreonam susceptible breakpoint: all five isolates
[1]; aztreonam + single adjuvant 8 μM
  isolates reaching aztreonam susceptibility breakpoint (≤8 μg/ml): two out of five
[1]; ceftazidime + avibactam + compound 2, 8 μM each
  isolates below ceftazidime susceptible breakpoint: all isolates
[1]; ceftazidime + single adjuvant 8 μM
  isolates reaching ceftazidime susceptibility breakpoint (≤8 μg/ml): one of five
[1]; meropenem + avibactam + compound 2, 8 μM each
  isolates reaching meropenem susceptible levels: three out of five
[1]; meropenem + single adjuvant 8 μM
  isolates reaching meropenem susceptibility level: zero of five
[1]; single adjuvant at 8 μM, five isolates
  potentiation of ceftazidime: 4 fold
E. coli ATCC 25922
  MIC: 64 µg/mL

## C[C@@H](O)[C@H]1C(=O)N2C(C(=O)O)=C(S[C@@H]3CN[C@H](C(=O)N(C)C)C3)[C@H](C)[C@H]12 [Meropenem]
[2]
  achievable plasma concentration: > 8 µg/mL
